# Values of other authors as cited in patent US20220202682A1, “INCREASING THE STABILITY OF AGENTS FOR THE TREATMENT OF KERATINOUS MATERIAL” (Henkel AG & Co. KGaA, priority 2019, published 2022).
# Details: 25° C.
row,SMILES,solubility in water
1,"O=S(=O)([O-])c1ccc(N=Nc2c(O)ccc3ccccc23)cc1.[Na+] [Acid Orange 7, sodium salt of 4-[(2-hydroxy-1-naphthyl)azo]benzene sulphonate]",more than 7 g/L
2,"Nc1cc(S(=O)(=O)[O-])cc2cc(S(=O)(=O)[O-])c(N=Nc3ccccc3)c(O)c12.[Na+].[Na+] [Acid Red 33, disodium salt of 5-amino-4-hydroxy-3-(phenylazo)-naphthalene-2,7-disulphonate]",2500 µg/mL
3,"O=C([O-])c1c(Cl)c(Cl)c(Cl)c(Cl)c1-c1c2c(Br)cc(=O)c(Br)c-2oc2c(Br)c(O)cc(Br)c12.O=C([O-])c1c(Cl)c(Cl)c(Cl)c(Cl)c1-c1c2c(Br)cc(=O)c(Br)c-2oc2c(Br)c(O)cc(Br)c12.[Na+].[Na+] [Acid Red 92, disodium salt of 3,4,5,6-tetrachloro-2-(1,4,5,8-tetrabromo-6-hydroxy-3-oxoxanthen-9-yl)benzoic acid]",greater than 10 g/L
4,"O=C([O-])C1=NN(c2ccc(S(=O)(=O)[O-])cc2)C(=O)C1N=Nc1ccc(S(=O)(=O)[O-])cc1.[Na+].[Na+].[Na+] (stereo not shown) [Acid Yellow 23, trisodium salt of 4,5-dihydro-5-oxo-1-(4-sulfophenyl)-4-((4-sulfophenyl)azo)-1H-pyrazole-3-carboxylic acid]",highly soluble
